These results are taken from US20140045823A1 (Neurocrine Biosciences, Inc., priority 2012, published 2014).

The target in the assay is T1, human GPR119 (Homo sapiens, UniProt Q8TDV5).
T1 construct: expression vector for human GPR119 cDNA (Acc. No. NP_848566); expressed in transfected cells; Min-6/hGPR119
T1 sequence (Q8TDV5 1-335): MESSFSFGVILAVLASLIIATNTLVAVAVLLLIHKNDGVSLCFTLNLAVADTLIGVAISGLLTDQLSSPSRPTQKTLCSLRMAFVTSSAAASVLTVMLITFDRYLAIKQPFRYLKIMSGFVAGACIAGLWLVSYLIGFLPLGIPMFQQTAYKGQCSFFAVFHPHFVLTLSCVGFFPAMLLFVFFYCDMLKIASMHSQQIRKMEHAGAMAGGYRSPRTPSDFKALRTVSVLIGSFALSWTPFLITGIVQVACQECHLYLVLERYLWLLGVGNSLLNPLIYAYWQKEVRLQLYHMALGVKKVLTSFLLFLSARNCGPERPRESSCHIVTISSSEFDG
As to the kind of experiment: AlphaScreen cAMP assay in MIN6 cells stably transfected with human GPR119. The settings on record: Min-6/hGPR119 cells, 45 min at room temperature. The class given is cell-based. The procedure: The compounds of formula I according to the invention modulate the activity of the G-protein-coupled receptor GPR119. The effect of the compounds on the activation of GPR119 and on the stimulation of intracellular cAMP concentration is determined using the AlphaScreen cAMP Assay Kit (Cat. No. #6760625R) made by PerkinElmer.
MIN6 cells [Miyazaki J et al. Endocrinology. 1990 July; 127(1):126-32] are stably transfected with an expression vector for human GPR119 cDNA (Acc. No. NP_848566). Min-6/hGPR119 cells are cultured in DMEM, 10% FBS, 50 μM β-mercaptoethanol, 0.3 mg/mL Geniticin, 2 mM GlutaMAX at 37° C. 5% CO2. For the assay, the cells are seeded in Optiplates (white, 384-well, 160 W—barcoded, TC, sterile with lid, Cat. No. #6007688 (Perkin Elmer); 10000 cells/well; 50 μl). The plates covered with lids are then incubated for 24 hours at 37° C./5% CO2. After the medium is aspirated from the wells completely, 10 μl of the test compound are added, the compounds are diluted using stimulating buffer (140 mM NaCl, 3.6 mM KCl, 0.5 mM NaH2PO4, 0.5 mM MgSO4, 1.5 mM CaCl2, 10 mM Hepes, 5 mM NaHCO3; pH 7.4. 0.5 mM IBMX and 0.1% BSA, the final DMSO concentration is 1%). After 45 minutes incubation at room temperature (approx. 20° C.), the cAMP concentrations are determined using the AlphaScreen cAMP Assay Kit (Cat. No. #6760625R from PerkinElmer).
The EC50 is the concentration giving half of the maximal effect. A higher EC50 goes with a need for much substance. Regarding `CN(CC1(C)COC1)C(=O)Cc1ccc(-c2ncc(C(=O)N(C3CC3)C3CCN(C(=O)OC(C)(C)C)CC3)cn2)cc1` [Example 186, 4-{Cyclopropyl-[2-(4-{[methyl-(3-methyl-oxetan-3-ylmethyl)-carbamoyl]-methyl}-phenyl)-pyrimidine-5-carbonyl]-amino}-piperidine-1-carboxylic acid tert-butyl ester], the EC50 came to 617 nM.
The same measure for `CC(C)(C)OC(=O)N1CCC(N(C(=O)c2ncn(-c3ccc(C#N)cc3)n2)C2CC2)CC1` [Example 50, 4-{[1-(4-Cyano-phenyl)-1H-[1,2,4]triazole-3-carbonyl]-cyclopropyl-amino}-piperidine-1-carboxylic acid tert-butyl ester]: 505 nM.
The figure for `COC[C@H]1CCCN1C(=O)c1ccc(-c2ncc(C(=O)N(C3CC3)C3CCN(C(=O)OC(C)(C)C)CC3)cn2)cc1F` [Example 114, 4-(Cyclopropyl-{2-[3-fluoro-4-(2-methoxymethyl-pyrrolidine-1-carbonyl)-phenyl]-pyrimidine-5-carbonyl}-amino)-piperidine-1-carboxylic acid tert-butyl ester] is 378 nM.
The figure for `COC[C@@H]1CCCN1C(=O)c1ccc(-c2ncc(C(=O)N(C3CC3)C3CCN(C(=O)OC(C)(C)C)CC3)cn2)cc1F` [Example 108, 4-(Cyclopropyl-{2-[3-fluoro-4-(2-methoxymethyl-pyrrolidine-1-carbonyl)-phenyl]-pyrimidine-5-carbonyl}-amino)-piperidine-1-carboxylic acid tert-butyl ester] is 312 nM; for `CN(Cc1ccncc1)C(=O)c1ccc(-c2ncc(C(=O)N(C3CC3)C3CCN(C(=O)OC(C)(C)C)CC3)cn2)cc1F` [Example 139, 4-(Cyclopropyl-{2-[3-fluoro-4-(methyl-pyridin-4-ylmethyl-carbamoyl)-phenyl]-pyrimidine-5-carbonyl}-amino)-piperidine-1-carboxylic acid tert-butyl ester] it is 263 nM.
As to `COc1ccc(NC(=O)c2ccc(-c3ncc(C(=O)N(C4CC4)C4CCN(C(=O)OC(C)(C)C)CC4)cn3)c(F)c2)cn1` [Example 159, 4-(Cyclopropyl-{2-[2-fluoro-4-(6-methoxy-pyridin-3-ylcarbamoyl)-phenyl]-pyrimidine-5-carbonyl}-amino)-piperidine-1-carboxylic acid tert-butyl ester], the concentration for a half-maximal effect (EC50) amounted to 303 nM.
The same measure for `CC(C)(C)OC(=O)N1CCC(N(C(=O)c2ccc(-c3cnco3)nn2)C2CC2)CC1` [Example 6, 4-[Cyclopropyl-(6-oxazol-5-yl-pyridazine-3-carbonyl)-amino]-piperidine-1-carboxylic acid tert-butyl ester]: 1300 nM; for `CC(C)(C)OC(=O)N1CCC(N(C(=O)c2cnc(-c3ccc(C(=O)NCC4CCCO4)c(F)c3)nc2)C2CC2)CC1` (centres unmarked) [Example 146, 4-[Cyclopropyl-(2-{3-fluoro-4-[(tetrahydro-furan-2-ylmethyl)-carbamoyl]-phenyl}-pyrimidine-5-carbonyl)-amino]-piperidine-1-carboxylic acid tert-butyl ester]: 64 nM; for `CC(C)(C)OC(=O)N1CCC(N(C(=O)c2coc(-c3ccc(S(C)(=O)=O)cc3F)n2)C2CC2)CC1` [Example 25]: 97 nM.
The same measure for `COC[C@@H]1CCCN1C(=O)Cc1ccc(-c2ncc(C(=O)N(C3CC3)C3CCN(C(=O)OC(C)(C)C)CC3)cn2)cc1` [Example 212, 4-[Cyclopropyl-(2-{4-[2-(2-methoxymethyl-pyrrolidin-1-yl)-2-oxo-ethyl]-phenyl}-pyrimidine-5-carbonyl)-amino]-piperidine-1-carboxylic acid tert-butyl ester]: 350 nM.
The same measure for `CN(Cc1cccnc1)C(=O)c1ccc(-c2ncc(C(=O)N(C3CC3)C3CCN(C(=O)OC(C)(C)C)CC3)cn2)c(F)c1` [Example 166, 4-(Cyclopropyl-{2-[2-fluoro-4-(methyl-pyridin-3-ylmethyl-carbamoyl)-phenyl]-pyrimidine-5-carbonyl}-amino)-piperidine-1-carboxylic acid tert-butyl ester]: 359 nM.
Molecule `Cc1cc(C(=O)N(C2CC2)C2CCN(C(=O)OC(C)(C)C)CC2)cnc1-c1cnco1` [Example 10, 4-[Cyclopropyl-(5-methyl-6-oxazol-5-yl-pyridine-3-carbonyl)-amino]-piperidine-1-carboxylic acid tert-butyl ester] had an EC50 of 748 nM.
The figure for `CC(C)(C)OC(=O)N1CCC(N(C(=O)c2cnc(-c3ccc(C(=O)NC4CCC(O)CC4)cc3)nc2)C2CC2)CC1` (centres unmarked) [Example 171, 4-(Cyclopropyl-{2-[4-(4-hydroxy-cyclohexylcarbamoyl)-phenyl]-pyrimidine-5-carbonyl}-amino)-piperidine-1-carboxylic acid tert-butyl ester] is 383 nM; for `CC(C)(C)OC(=O)N1CCC(N(C(=O)c2cc(-c3ccc(C#N)cc3F)no2)C2CC2)CC1` [Example 42, 4-{[3-(4-Cyano-2-fluoro-phenyl)-isoxazole-5-carbonyl]-cyclopropyl-amino}-piperidine-1-carboxylic acid tert-butyl ester] it is 2 nM.
In the case of `Cc1cnn(-c2ncc(C(=O)N(C3CC3)C3CCN(C(=O)OC(C)(C)C)CC3)cn2)c1` [Example 95, 4-{Cyclopropyl-[2-(4-methyl-pyrazol-1-yl)-pyrimidine-5-carbonyl]-amino}-piperidine-1-carboxylic acid tert-butyl ester], the EC50 worked out at 229 nM.
The same measure for `CC(C)(C)OC(=O)N1CCC(N(C(=O)c2cnc(-c3ccc(S(C)(=O)=O)cc3)nc2)C2CC2)CC1` [Example 80, 4-{Cyclopropyl-[2-(4-methanesulfonyl-phenyl)-pyrimidine-5-carbonyl]-amino}-piperidine-1-carboxylic acid tert-butyl ester]: 75 nM.
The same measure for `CN(Cc1ccncc1)C(=O)Cc1ccc(-c2ncc(C(=O)N(C3CC3)C3CCN(C(=O)OC(C)(C)C)CC3)cn2)cc1` [Example 209, 4-[Cyclopropyl-(2-{4-[(methyl-pyridin-4-ylmethyl-carbamoyl)-methyl]-phenyl}-pyrimidine-5-carbonyl)-amino]-piperidine-1-carboxylic acid tert-butyl ester]: 312 nM.
The same measure for `CC(C)(C)OC(=O)N1CCC(N(C(=O)c2cnc(-c3ccc(CC(=O)N4CCC[C@@H]4C#N)cc3)nc2)C2CC2)CC1` [Example 211, 4-[(2-{4-[2-(2-Cyano-pyrrolidin-1-yl)-2-oxo-ethyl]-phenyl}-pyrimidine-5-carbonyl)-cyclopropyl-amino]-piperidine-1-carboxylic acid tert-butyl ester]: 561 nM; for `Cc1c(C(=O)N(C2CC2)C2CCN(C(=O)OC(C)(C)C)CC2)noc1-c1ccc(C#N)cc1` [Example 44, 4-{[5-(4-Cyano-phenyl)-4-methyl-isoxazole-3-carbonyl]-cyclopropyl-amino}-piperidine-1-carboxylic acid tert-butyl ester]: 47 nM.
On to `COC1CCN(C(=O)c2ccc(-c3ncc(C(=O)N(C4CC4)C4CCN(C(=O)OC(C)(C)C)CC4)cn3)cc2)CC1` [Example 181, 4-(Cyclopropyl-{2-[4-(4-methoxy-piperidine-1-carbonyl)-phenyl]-pyrimidine-5-carbonyl}-amino)-piperidine-1-carboxylic acid tert-butyl ester], for which the EC50 stood at 206 nM.
In turn, `CC(C)(C)OC(=O)N1CCC(N(C(=O)c2noc(-c3ccc(C#N)c(F)c3)n2)C2CC2)CC1` [Example 20, 4-{[5-(4-Cyano-3-fluoro-phenyl)-[1,2,4]oxadiazole-3-carbonyl]-cyclopropyl-amino}-piperidine-1-carboxylic acid tert-butyl ester] had an EC50 of 7 nM.
The same measure for `CC(C)(C)OC(=O)N1CCC(N(C(=O)c2cnc(-c3ccc(C(=O)NCC4CCCCO4)c(F)c3)nc2)C2CC2)CC1` (centres unmarked) [Example 152, 4-[Cyclopropyl-(2-{3-fluoro-4-[(tetrahydro-pyran-2-ylmethyl)-carbamoyl]-phenyl}-pyrimidine-5-carbonyl)-amino]-piperidine-1-carboxylic acid tert-butyl ester]: 109 nM; for `CC(O)c1cccc(NC(=O)Cc2ccc(-c3ncc(C(=O)N(C4CC4)C4CCN(C(=O)OC(C)(C)C)CC4)cn3)cc2)c1` (centres unmarked) [Example 210, 4-{Cyclopropyl-[2-(4-{[3-(1-hydroxy-ethyl)-phenylcarbamoyl]-methyl}-phenyl)-pyrimidine-5-carbonyl]-amino}-piperidine-1-carboxylic acid tert-butyl ester]: 593 nM.
